Measurements as given in paper PMC6934184, “Selective DNA-PKcs inhibition extends the therapeutic index of localized radiotherapy and chemotherapy” (The Journal of Clinical Investigation, 2019).

Biological target: T1, RPS6KA2 (RSK3) (Homo sapiens, UniProt Q15349)
T1 construct: purchased Thermo Fisher Scientific (Life Technologies) SelectScreen
Assay: SelectScreen Z'LYTE
Type: biochemical
Method in brief: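 SelectScreen broad panel; activity (Z'LYTE, Adapta) plus binding formats. ATP: Km app for CSF1R Z'LYTE; 10 for CAMK1 Adapta. Readout = % per kinase.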

T1 sequence (Q15349 whole entry): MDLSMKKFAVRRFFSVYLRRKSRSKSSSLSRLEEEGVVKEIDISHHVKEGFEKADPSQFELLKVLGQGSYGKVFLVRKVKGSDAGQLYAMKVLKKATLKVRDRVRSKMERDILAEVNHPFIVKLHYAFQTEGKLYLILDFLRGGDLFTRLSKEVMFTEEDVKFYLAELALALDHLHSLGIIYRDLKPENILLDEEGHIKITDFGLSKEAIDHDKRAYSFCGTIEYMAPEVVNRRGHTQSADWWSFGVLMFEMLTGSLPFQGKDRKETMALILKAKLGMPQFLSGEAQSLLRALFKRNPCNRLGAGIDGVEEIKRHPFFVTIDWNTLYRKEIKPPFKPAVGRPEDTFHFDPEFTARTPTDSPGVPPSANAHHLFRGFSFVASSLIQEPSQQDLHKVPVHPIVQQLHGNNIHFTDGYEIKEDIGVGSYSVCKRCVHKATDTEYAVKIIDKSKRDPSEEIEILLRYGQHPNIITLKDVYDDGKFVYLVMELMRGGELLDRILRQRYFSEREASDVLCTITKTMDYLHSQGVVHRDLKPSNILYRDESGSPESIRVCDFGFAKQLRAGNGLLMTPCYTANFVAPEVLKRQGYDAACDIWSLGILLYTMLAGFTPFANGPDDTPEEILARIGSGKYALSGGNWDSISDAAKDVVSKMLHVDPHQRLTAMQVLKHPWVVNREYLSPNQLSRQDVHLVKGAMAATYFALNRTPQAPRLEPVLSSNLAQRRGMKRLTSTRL

SMILES: CN(C(=O)CN1CCOCC1)c1ccc2sc3c(-c4cccc5c(=O)cc(N6CC7CCC(C6)O7)oc45)cccc3c2c1 [NU5455]
- inhibition at 1 µM: 10.8%
